{"source": "patent US7476509B2", "about": "“Compounds and methods for modulating functions of nonclassical cadherins” (Adherex Technologies Inc., priority 2002, dated 2009)", "system": "SKOV3 human ovarian cancer cells", "experiment": "Effects of ADH358 on confluent cultures of SKOV3 cells (disruption of cell adhesion, microscopic examination)", "assay_type": "cell-based", "conditions": "1 mg/ml of culture medium, 24 hours of treatment", "description": "We investigated the effects of the linear peptide ADH358 (H-RWAPIP-NH2 (SEQ ID NO: 2); Desmocollin derived peptide) on confluent cultures of SKOV3 cells. SKOV3 human ovarian cancer cells express desmosomes (which are composed of desmocollins and desmogleins). SKOV3 human ovarian cancer cells were obtained from Dr. Riaz Farookhi, McGill University, Montreal, Canada. The cells were cultured in minimum essential medium (MEM) supplemented with 10% fetal calf serum, non-essential amino acids, fungizone, penicillin-streptomycin, and gentamicin in a humidified atmosphere (5% CO2) at 37° C. All culture reagents were purchased from GIBCO (Burlington, ON). ADH358 (1 mg/ml of culture medium) was added to confluent cultures of SKOV3 cells. After 24 hours of treatment, the cells were fixed with 4% paraformaldehyde, followed by 3 washes with phosphate buffered saline, and then stained with hematoxylin. Control cultures were grown in the absence of peptide."}
{"substance": "H-RWAPIP-NH2 [ADH358]", "values": [{"measurement": "cell morphology / cell-cell attachment of SKOV3 cells", "result": "detach from one another and adopt an elongated, fibroblast-like morphology"}, {"measurement": "effect on confluent SKOV3 monolayers (cell adhesion)", "setting": "hematoxylin stain, vs control cultures without peptide", "result": "disruption of the confluent SKOV3 monolayers"}]}
